Reference: publication PMC5869712 (Scientific Reports, 2018)
Like-named read-outs stand apart in the source and are kept apart here.

Tests used:
[1] = test system: other kinases of the conserved cysteine panel (BMX, BTK, ITK, TXK, TEC, BLK, EGFR, ERBB4, ERBB2); test: Cys-containing kinase family panel, kinases other than JAK3 taken together; assay type: biochemical; details: 1 µM
Excerpt: (§1) The assay protocol guides are commercially available from ChemPartner.

[2] = test system: IL-4-induced JAK/STAT6 phosphorylation in THP-1 cells (JAK1/JAK3); test: STAT6 phosphorylation induced by IL-4 in THP-1 cells, Western blot; details: for IC50: Homo sapiens
[3] = test system: DBA/1 mice with collagen-induced arthritis; test: Collagen-induced arthritis mouse model: clinical score, histology, safety; assay type: in vivo; details: CIA mice; for group mean histological severity score: model group 3.8, grades 0-4
Description: The animal protocol was approved by the Animal Care and Use Committee of Sichuan University in China (IACUC number: 20100318). DBA/1 J mice (male, 6 weeks old) were obtained from Jackson Laboratory (Bar Harbor, ME). One day before the start of the experiment, CII solution (2 mg/ml) was prepared with 0.05 M acetic acid and stored at 4 °C. Just before the immunization, equal volumes of IFA and CII were mixed by a homogenizer in a precooled glass bottle in an ice water bath. Arthritis was induced in 8-week old male DBA/1 mice by immunizations with a 1:1 emulsion of bovine type II collagen (Chondrex) and Freund’s complete adjuvant (Sigma-Aldrich) on day 0 and with a 1:1 emulsion of bovine type II collagen in Freund’s incomplete adjuvant (Sigma-Aldrich) on day 21. […] On the day treatment was initiated, the mice were randomly assigned to controls (no collagen injection plus vehicle; […]. Mice were scored daily for signs of arthritis for 33 days. CIA development was inspected three times per week, and the inflammation of the four paws was graded from 0 to 4 (grade 0, paws with no swelling or focal redness; grade 1, paws with swelling of finger joints; grade 2, paws with a mild swelling of the ankle or wrist joints; grade 3, paws with severe inflammation of the entire paw; and grade 4, paws with deformity or ankylosis). Each paw was graded, and the four scores were totalled so that the possible maximum score per mouse was 16.
DBA1/J mice were sacrificed on day 33 after treatment and ankle joints were removed and fixed with 4% paraformaldehyde for more than 48 h. The joints were decalcified in EDTA buffer for 21 days and then embedded in paraffin blocks. Joint sections were stained with H&E or safranin O-fast green. Histological changes were examined under microscope using methods modified from McKew et al.[43] as follows: grade 0 = no abnormal findings; grade 1 = synoviocyte hypertrophy, slight synovial membrane fibrosis, slight-to-mild inflammatory cell infiltrates into the synovial membrane/articular capsule and/or joint space; grade 2 = grade 1 plus mild-to-moderate inflammatory cell infiltrates, pannus formation (if present) minimal with superficial cartilage erosion; grade 3 = grade 2 plus marked inflammatory cell infiltrates and fibrosis, mild-to-severe erosion of the cartilage extending into the subchondral bone; and grade 4 = loss of joint integrity through erosion or destruction with bone remodelling, massive inflammatory cell infiltrates, fibrosis, and ankylosis.

[4] = target: T1, TXK (Homo sapiens, UniProt P42681); test: Cys-containing kinase family panel (EurofinsCerep); assay type: biochemical
T1 construct: EurofinsCerep (contract assay service)
T1 sequence (P42681 whole entry): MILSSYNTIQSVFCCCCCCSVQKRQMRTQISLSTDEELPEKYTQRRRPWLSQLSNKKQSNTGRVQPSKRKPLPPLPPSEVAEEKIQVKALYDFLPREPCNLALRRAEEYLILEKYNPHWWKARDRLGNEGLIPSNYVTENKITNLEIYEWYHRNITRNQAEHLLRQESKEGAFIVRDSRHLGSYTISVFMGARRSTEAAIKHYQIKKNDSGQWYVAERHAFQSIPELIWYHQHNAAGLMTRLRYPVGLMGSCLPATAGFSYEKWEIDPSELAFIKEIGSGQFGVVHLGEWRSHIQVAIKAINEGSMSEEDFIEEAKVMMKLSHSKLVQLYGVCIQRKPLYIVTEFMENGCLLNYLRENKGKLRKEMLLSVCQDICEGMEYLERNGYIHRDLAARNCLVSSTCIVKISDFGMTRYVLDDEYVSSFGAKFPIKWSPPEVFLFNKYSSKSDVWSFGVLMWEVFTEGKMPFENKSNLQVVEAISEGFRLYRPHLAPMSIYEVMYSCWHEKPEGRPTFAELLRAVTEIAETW
Excerpt: as §1

[5] = target: T2, EGFR (Homo sapiens, UniProt P00533); test: Cys-containing kinase family panel (EurofinsCerep); assay type: biochemical
T2 construct: EurofinsCerep (contract assay service)
T2 sequence (P00533 25-1210): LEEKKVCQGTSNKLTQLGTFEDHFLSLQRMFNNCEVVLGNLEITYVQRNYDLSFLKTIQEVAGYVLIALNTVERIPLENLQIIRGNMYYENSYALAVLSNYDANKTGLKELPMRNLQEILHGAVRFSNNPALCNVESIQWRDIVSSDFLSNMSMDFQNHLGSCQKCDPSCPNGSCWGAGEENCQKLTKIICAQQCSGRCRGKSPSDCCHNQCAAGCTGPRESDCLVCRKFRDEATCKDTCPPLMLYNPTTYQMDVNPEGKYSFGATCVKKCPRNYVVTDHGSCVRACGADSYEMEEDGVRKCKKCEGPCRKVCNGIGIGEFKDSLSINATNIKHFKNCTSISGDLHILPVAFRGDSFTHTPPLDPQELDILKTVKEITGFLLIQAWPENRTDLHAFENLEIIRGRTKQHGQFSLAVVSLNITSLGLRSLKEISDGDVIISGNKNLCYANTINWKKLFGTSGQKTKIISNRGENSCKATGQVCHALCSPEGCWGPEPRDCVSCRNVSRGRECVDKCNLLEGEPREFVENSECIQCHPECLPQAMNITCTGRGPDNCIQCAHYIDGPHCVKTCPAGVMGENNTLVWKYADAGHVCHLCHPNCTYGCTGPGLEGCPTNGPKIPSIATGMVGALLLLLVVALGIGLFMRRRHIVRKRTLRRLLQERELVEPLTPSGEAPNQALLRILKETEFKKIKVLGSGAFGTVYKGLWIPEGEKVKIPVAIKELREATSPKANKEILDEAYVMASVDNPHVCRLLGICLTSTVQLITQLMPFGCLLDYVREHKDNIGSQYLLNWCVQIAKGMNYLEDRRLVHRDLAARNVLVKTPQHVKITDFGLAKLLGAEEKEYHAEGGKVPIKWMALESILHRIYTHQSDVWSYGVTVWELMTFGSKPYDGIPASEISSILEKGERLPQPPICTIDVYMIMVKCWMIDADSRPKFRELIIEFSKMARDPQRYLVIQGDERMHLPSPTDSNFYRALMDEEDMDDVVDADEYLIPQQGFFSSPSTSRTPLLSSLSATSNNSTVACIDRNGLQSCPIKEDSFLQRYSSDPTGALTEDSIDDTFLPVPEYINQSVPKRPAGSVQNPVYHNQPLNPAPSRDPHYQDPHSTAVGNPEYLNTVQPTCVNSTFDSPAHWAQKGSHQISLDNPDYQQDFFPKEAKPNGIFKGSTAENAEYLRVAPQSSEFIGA
Excerpt: as §1

[6] = target: T3, TEC (Homo sapiens, UniProt P42680); test: Cys-containing kinase family panel (EurofinsCerep); assay type: biochemical
T3 construct: EurofinsCerep (contract assay service)
T3 sequence (P42680 whole entry): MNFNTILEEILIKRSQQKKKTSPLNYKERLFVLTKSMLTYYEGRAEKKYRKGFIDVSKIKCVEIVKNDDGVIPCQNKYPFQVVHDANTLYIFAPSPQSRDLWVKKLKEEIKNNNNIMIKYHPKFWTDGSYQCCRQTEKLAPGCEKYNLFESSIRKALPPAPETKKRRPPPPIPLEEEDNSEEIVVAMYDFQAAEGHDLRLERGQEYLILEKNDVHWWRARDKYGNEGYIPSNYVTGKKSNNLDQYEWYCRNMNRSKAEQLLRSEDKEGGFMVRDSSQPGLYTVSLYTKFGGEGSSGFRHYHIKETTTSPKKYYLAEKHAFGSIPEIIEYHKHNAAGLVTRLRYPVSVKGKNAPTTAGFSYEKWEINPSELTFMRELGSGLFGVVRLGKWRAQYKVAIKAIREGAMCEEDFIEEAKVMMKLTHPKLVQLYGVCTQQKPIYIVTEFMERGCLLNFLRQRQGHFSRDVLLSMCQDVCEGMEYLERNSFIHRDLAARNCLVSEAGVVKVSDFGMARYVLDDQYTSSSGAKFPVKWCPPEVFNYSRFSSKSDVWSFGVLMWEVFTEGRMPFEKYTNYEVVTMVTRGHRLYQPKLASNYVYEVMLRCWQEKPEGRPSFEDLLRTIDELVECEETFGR
Excerpt: as §1

[7] = target: T4, ALK (Homo sapiens, UniProt Q9UM73); test: Eurofins Kinase Profiler panel; assay type: biochemical; details: read-out: % inhibition (1μM), DMSO control=100%, lower=stronger
T4 construct: purchased Eurofins KinaseProfiler (Eurofins Pharma Discovery Services UK, Dundee); JAK3 also ChemPartner
T4 sequence (Q9UM73 19-1620): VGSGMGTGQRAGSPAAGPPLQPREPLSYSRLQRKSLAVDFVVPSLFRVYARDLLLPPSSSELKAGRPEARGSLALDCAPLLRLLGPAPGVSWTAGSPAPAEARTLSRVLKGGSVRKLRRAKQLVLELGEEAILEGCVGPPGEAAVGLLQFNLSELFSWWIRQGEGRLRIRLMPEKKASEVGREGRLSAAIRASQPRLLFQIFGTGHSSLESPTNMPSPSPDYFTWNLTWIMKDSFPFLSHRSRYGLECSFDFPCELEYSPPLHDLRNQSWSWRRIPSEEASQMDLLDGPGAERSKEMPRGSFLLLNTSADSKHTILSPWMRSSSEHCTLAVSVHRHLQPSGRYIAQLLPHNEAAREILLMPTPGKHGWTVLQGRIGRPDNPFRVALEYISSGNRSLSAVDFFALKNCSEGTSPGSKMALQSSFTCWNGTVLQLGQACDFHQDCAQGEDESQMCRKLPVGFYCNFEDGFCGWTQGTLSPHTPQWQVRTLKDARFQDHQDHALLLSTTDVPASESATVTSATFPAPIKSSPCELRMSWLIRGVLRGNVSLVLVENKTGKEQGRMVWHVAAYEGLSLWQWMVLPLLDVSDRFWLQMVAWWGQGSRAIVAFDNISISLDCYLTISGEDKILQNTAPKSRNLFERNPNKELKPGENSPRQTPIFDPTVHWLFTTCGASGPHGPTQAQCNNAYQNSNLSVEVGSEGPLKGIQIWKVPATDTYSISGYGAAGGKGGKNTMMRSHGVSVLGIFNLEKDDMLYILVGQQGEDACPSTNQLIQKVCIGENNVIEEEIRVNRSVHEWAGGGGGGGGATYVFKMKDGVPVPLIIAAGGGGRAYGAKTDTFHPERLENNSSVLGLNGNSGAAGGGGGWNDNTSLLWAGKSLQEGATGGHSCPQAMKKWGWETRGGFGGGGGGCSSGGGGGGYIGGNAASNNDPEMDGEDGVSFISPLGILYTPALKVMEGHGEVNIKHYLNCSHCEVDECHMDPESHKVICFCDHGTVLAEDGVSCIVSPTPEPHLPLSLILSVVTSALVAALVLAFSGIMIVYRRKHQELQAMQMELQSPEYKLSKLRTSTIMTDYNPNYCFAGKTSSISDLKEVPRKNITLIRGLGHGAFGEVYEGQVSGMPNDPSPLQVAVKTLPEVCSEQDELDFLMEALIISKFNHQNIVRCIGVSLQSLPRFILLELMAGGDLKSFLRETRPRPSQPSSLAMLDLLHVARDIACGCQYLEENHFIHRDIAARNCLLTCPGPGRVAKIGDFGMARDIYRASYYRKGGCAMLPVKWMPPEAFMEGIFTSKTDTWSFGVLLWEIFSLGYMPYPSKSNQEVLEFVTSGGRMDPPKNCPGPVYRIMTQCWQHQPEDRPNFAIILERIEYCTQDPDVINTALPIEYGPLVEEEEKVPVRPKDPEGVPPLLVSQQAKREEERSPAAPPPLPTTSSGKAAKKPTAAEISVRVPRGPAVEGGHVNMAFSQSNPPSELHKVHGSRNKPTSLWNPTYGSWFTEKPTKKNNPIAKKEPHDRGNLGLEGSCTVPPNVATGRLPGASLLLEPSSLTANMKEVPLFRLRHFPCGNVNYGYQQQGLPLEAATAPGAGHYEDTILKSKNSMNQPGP

C=CC(=O)N[C@@H]1CCCN(c2ncnc3[nH]ccc23)C1 [RB1]
inhibition of other kinases of the conserved cysteine panel [1]: less than 15%
IC50 ([2]; THP-1, read-out: IC50 (nM) JAK1): > 50000 nM
IC50 ([2]; THP-1, read-out: IC50 (nM) JAK3): 53.1 nM
inhibition of JAK3 phosphorylation compared with JAK1/JAK2-mediated STATs phosphorylation ([2]; IL-4 cell-based assay in THP-1 cells): over 1000 folds
Selectivity JAK1/JAK3 ([2]; THP-1, IL-4, pSTAT6): > 1000
selectivity for JAK3 activity over JAK1 or JAK2 ([2]; battery of cytokine-stimulated cell-based assays): > 100 fold
H&E analysis of the major organs [3]: no significant side effects
body weight during treatment [3]: no fluctuations
group mean histological severity score ([3]; 10 mg/kg): 2.5
group mean histological severity score ([3]; 30 mg/kg): 1.7
group mean histological severity score ([3]; 100 mg/kg): 0.9
arthritis (clinical) scores ([3]; p < 0.05 at 10 mg/kg, p < 0.001 at 30 and 60 mg/kg (so in the source)): lower arthritis scores than untreated CIA mice
inhibition at 1 µM [4]: 7.25%
inhibition at 1 µM [5]: 11.2%
inhibition at 1 µM [6]: 14%
activity at 1 µM [7]: 100%
